{"source": "paper PMC10497752", "about": "“Heparins are potent inhibitors of ectonucleotide pyrophosphatase/phospho-diesterase-1 (NPP1) – a promising target for the immunotherapy of cancer” (Frontiers in Immunology, 2023)", "format_in_all_cases": "biochemical", "key": {"human NPP5": {"target": "T1, human NPP5 (Homo sapiens, UniProt Q9UJA9)", "T1 sequence (Q9UJA9 25-477)": "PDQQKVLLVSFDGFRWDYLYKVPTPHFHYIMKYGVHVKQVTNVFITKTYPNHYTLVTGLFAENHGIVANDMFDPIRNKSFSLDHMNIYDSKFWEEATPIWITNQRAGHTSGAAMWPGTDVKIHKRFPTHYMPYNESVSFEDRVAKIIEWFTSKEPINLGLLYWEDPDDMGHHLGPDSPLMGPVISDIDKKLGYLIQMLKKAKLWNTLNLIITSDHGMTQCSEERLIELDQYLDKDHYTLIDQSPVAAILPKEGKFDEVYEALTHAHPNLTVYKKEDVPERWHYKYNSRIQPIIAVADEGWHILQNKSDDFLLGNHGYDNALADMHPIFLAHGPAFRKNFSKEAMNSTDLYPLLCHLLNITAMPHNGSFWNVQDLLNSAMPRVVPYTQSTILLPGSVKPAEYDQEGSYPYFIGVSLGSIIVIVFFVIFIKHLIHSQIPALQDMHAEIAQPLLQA", "test": "NPP5 colorimetric assay, p-Nph-5'-TMP as substrate", "conditions": "20 µg/mL (12 µM)", "protocol": "Compounds 1, 2, 5, 6, and 7 were screened at different concentrations using 400 μM of p-nitrophenyl thymidine monophosphate (p-Nph-5´-TMP) as substrate to study potential inhibition of NPP3 and NPP5 using a colorimetric assay as previously described ([21]). Soluble and purified human NPP3, prepared as previously described ([22]), and human NPP5 ([23]) were diluted in the assay buffer (50 mM TRIS HCl, 2 mM CaCl2, and 0.2 mM ZnCl2, pH 9.00), and 0.09 µg of NPP3, or 0.4 µg of NPP5 were employed. The mixtures were incubated for 30 min at 37°C in case of NPP3, and for 100 min at 37°C in case of NPP5, and the reactions were subsequently terminated by adding 20 μL of 1.0 N aq. NaOH solution. The assay is based on the enzymatic ester hydrolysis of p-Nph-5’-TMP which results in the formation of the yellow p-nitrophenolate anion. The absorption was measured at 400 nm using a BMG PheraStar FS plate reader (BMG Labtech GmbH, Ortenberg, Germany). Each analysis was repeated three times with triplicate measurements."}, "human NPP1": {"test_system": "human NPP1", "test": "NPP1 assay, capillary electrophoresis (CE)-based, ATP as substrate", "protocol": "Concentration-inhibition curves of the test compounds at human NPP1 were performed with ATP as substrate at a final concentration of 400 μM. Several different dilutions of the test compounds were prepared in assay buffer (10 mM N-cyclohexyl-2-aminoethanesulfonic acid (CHES), 2 mM CaCl2, 1 mM MgCl2, pH 9.00) and incubated with 20 ng of human recombinant soluble NPP1 (Val191 - Leu591) expressed in murine myeloma NS0 cells obtained from R&D Systems GmbH (Wiesbaden, Germany, purity 95%, purified by using an N-terminal His-tag). For initial screening and selectivity analysis, NPP1 prepared as previously described ([20]), diluted in assay buffer, was used. The mixture of enzyme, substrate and test compound or buffer without test compound was incubated for 30 min at 37°C, and the reaction was terminated by heating at 90°C for 5 min. Capillary electrophoresis (CE) analysis was carried out to analyze the formation of the product. Data collection and peak area analysis were performed by the P/ACE MDQ software 32 KARAT obtained from Beckman Coulter (Fullerton, CA, USA). A polyacrylamide-coated capillary was used [30 cm (20 cm effective length) × 50 μm (id) × 360 μm (od) purchased from Chromatographie Service GmbH (Langerwehe, Germany)]. Samples were injected electro-kinetically by applying a voltage of -6 kV for 30 s. Finally, analytes were separated by applying a separation voltage of -20 kV, and detected by UV at 260 nm. The IC50 values were determined by nonlinear curve fitting using the GraphPad Prism Software 7.0. The mechanism of inhibition at human NPP1 was determined employing different concentrations of the investigated compounds 6 (at 0, 0.4, 4.0 µM), and 7 (at 0, 0.4 and 40 µM) versus four different substrate concentrations ranging from 50 to 500 μM of ATP. The assay procedure and operation conditions were the same as described above. The experiment was conducted twice, each in triplicates. A Lineweaver-Burk was calculated using GraphPad Prism 7.0 for predicting the inhibition type of the compound."}, "human CD73": {"target": "T2, human CD73 (Homo sapiens, UniProt P21589)", "T2 sequence (P21589 27-574)": "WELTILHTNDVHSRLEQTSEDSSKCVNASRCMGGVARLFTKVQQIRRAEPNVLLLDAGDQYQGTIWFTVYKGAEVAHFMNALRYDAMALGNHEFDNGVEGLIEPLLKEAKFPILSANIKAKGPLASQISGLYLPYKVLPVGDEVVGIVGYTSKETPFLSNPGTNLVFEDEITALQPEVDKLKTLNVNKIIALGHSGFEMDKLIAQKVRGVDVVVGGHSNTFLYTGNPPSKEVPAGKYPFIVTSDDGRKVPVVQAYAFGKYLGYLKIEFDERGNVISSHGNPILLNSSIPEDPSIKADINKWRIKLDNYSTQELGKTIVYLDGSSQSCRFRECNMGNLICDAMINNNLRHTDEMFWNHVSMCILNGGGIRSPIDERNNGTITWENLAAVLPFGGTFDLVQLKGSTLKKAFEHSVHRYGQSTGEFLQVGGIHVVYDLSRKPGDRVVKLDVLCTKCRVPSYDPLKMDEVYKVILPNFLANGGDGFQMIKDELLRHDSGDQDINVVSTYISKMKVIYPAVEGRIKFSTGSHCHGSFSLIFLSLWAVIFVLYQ", "test": "CD73 radioactive assay, [2,8-3H]AMP", "conditions": "20 µg/mL (12 µM)", "protocol": "The assay was performed essentially as previously described ([32]). The enzymatic reaction was performed by mixing 0.36 ng of human CD73 ([33]) with test compound in assay buffer (25 mM Tris, 140 mM sodium chloride, 25 mM sodium dihydrogen phosphate, pH 7.4) and 5 µM of [2,8-^3H]AMP [(specific activity 7.4x10^8 Bq/mmol (20 mCi/mmol)), American Radio-labeled Chemicals, MO, USA, distributed by Hartmann Analytic, Germany]. Compound 7 was used at 800 µg/mL and compound 6 at 20 µg/mL for the selectivity test, while for initial screening compound 5 was tested at a concentration of 55 µM and 6 at 30 µM, and 1 and 2 were tested at 50 IU/mL ( Supplementary Figure 1 ). The enzymatic reaction was performed for 25 min at 37°C in a shaking water bath. Then, 500 µL of cold precipitation buffer (100 mM lanthanum chloride, 100 mM sodium acetate, pH 4.00) was added to stop the reaction and to facilitate precipitation of free phosphate and unconverted [2,8-^3H]-AMP. […] After washing each reaction vial three times with 400 µL of cold (4°C) demineralized water, 5 mL of the scintillation cocktail (ULTIMA Gold XR, PerkinElmer, MA, USA) was added and the radioactivity was measured by scintillation counting (TRICARB 2900 TR, Packard/PerkinElmer; counting efficacy: 49-52%). […]"}}, "data": [{"smiles": "CO[C@H]1O[C@H](COS(=O)(=O)O)[C@@H](O[C@@H]2O[C@@H](C(=O)O)[C@@H](O[C@H]3O[C@H](COS(=O)(=O)O)[C@@H](O[C@@H]4O[C@H](C(=O)O)[C@@H](O[C@H]5O[C@H](COS(=O)(=O)O)[C@@H](O)[C@H](O)[C@H]5NS(=O)(=O)O)[C@H](O)[C@H]4O)[C@H](OS(=O)(=O)O)[C@H]3NS(=O)(=O)O)[C@H](O)[C@H]2OS(=O)(=O)O)[C@H](O)[C@H]1NS(=O)(=O)O", "note": "[Compound 6, Fondaparinux]", "values": [{"measurement": "NPP5 inhibition, selectivity study", "setting": "human NPP5", "result": "no effect"}, {"measurement": "NPP1 inhibition, selectivity study", "setting": "human NPP1; 20 µg/mL (12 µM)", "result": "full inhibition"}, {"measurement": "inhibition of human NPP1, initial screening", "setting": "human NPP1; 50 µg/mL (30 µM)", "result": "almost complete inhibition"}, {"measurement": "CD73 inhibition, selectivity study", "setting": "human CD73", "result": "no effect"}]}]}
